The experiment addresses T1, human Cav3.2 T-type Ca2+ channel (Homo sapiens, UniProt O95180).
T1 construct: expressed in transfected cells; host or cells: KJMGER8 cells (Namalwa cell-derived cell line)
Nature of the experiment: Inhibitory effect for intracellular calcium response via Cav3.2 T-type Ca2+ channels (FLIPR Calcium 3 Assay Kit). Type of experiment: cell-based. (Calcium flux is commonly read through the fluorescence of an indicator in the cells.)

[1] abbreviates: human Cav3.2-expressing KJMGER8 cells (Namalwa-derived), calcium response induced by 5 mmol/L CaCl2, 3 μmol/L mibefradil as reference, read-out: IC50 for the human Cav3.2 T-type Ca2+ current.

As usually defined, the IC50 is the concentration needed to halve the response being measured.

Where two headings read alike, the source gives them in different places.

T1 sequence (O95180 whole entry): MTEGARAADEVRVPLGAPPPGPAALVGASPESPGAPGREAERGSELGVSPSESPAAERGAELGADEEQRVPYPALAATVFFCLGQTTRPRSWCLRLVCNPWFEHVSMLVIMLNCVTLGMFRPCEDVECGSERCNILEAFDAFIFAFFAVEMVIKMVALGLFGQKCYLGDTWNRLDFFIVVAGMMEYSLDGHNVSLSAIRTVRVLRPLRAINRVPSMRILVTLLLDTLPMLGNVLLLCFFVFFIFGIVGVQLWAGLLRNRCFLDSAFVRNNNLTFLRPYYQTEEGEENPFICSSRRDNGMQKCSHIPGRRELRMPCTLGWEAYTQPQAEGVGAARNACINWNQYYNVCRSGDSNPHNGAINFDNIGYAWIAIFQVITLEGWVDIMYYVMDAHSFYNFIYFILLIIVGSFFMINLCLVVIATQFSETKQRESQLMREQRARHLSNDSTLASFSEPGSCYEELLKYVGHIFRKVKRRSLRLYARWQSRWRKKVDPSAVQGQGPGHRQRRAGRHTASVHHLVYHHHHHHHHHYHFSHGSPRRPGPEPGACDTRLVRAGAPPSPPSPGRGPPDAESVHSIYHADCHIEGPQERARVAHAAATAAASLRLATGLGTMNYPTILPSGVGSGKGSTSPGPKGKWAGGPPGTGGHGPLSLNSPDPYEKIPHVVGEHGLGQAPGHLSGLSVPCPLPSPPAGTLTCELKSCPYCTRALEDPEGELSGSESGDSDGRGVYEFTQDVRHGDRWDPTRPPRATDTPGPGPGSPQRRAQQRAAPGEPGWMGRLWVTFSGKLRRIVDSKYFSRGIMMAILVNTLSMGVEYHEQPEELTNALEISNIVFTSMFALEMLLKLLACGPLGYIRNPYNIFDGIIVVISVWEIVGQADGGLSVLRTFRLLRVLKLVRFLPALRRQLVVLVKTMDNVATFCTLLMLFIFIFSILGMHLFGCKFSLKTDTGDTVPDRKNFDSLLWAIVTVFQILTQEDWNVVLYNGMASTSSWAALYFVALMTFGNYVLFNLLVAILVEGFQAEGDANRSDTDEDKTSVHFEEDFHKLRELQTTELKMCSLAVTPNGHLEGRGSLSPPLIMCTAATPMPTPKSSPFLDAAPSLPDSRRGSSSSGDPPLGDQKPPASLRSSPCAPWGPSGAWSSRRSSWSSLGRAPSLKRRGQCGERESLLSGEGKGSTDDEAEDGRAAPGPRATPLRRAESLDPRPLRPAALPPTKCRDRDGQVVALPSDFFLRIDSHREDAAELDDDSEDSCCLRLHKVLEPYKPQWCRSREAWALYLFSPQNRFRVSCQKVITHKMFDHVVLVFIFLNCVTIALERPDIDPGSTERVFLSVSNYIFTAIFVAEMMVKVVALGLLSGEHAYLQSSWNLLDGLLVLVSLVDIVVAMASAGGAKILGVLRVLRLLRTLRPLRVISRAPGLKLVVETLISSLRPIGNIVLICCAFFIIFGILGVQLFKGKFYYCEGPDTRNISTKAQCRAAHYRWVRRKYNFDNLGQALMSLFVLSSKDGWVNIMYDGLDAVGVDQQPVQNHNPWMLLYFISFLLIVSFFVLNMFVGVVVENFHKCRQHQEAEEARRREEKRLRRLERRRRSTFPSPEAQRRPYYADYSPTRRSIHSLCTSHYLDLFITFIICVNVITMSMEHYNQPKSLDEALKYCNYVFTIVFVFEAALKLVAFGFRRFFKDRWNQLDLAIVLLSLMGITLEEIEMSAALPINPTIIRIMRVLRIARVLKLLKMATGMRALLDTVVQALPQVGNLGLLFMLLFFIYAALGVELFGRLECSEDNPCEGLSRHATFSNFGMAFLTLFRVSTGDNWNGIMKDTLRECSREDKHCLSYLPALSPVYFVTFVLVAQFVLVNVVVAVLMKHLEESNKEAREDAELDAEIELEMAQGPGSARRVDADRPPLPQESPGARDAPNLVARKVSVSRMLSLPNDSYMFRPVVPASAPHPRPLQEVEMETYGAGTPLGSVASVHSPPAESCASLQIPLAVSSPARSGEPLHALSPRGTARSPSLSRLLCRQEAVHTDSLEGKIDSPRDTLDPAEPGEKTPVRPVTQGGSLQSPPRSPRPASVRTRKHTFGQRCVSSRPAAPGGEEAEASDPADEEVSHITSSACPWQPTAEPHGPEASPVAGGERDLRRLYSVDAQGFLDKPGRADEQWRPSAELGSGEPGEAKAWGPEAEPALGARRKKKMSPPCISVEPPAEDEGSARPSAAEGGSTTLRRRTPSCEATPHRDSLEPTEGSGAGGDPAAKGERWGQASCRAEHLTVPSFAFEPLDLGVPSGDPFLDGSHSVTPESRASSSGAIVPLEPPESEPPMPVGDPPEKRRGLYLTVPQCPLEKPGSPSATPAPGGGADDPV

On to `N#Cc1cc(C(=O)NC2CC2)cc2nc(C(F)(F)F)c(CC3CCC(F)(F)CC3)n12` [Compound 76, 5-Cyano-N-cyclopropyl-3-[(4,4-difluorocyclohexyl)methyl]-2-(trifluoromethyl)imidazo[1,2-a]pyridine-7-carboxamide], for which the IC50 is no more than 0.1 µM.
On the same count and under the same terms, in the case of `Cc1cc(C(=O)Nc2ccccc2)cc2nc(C(C)(C)O)c(CC3CCC(F)(F)CC3)n12` [Compound 8, 3-[(4,4-Difluorocyclohexyl)methyl]-2-(2-hydroxypropan-2-yl)-5-methyl-N-phenylimidazo[1,2-a]pyridine-7-carboxamide] it was no more than 0.1 µM; in that of `O=C(NNC(=O)C1CC1)c1cc(Cl)n2c(CC3CCC(F)(F)CC3)c(C(F)(F)F)nc2c1` [Compound 142, 5-Chloro-N′-(cyclopropanecarbonyl)-3-[(4,4-difluorocyclohexyl)methyl]-2-(trifluoromethyl)imidazo[1,2-a]pyridine-7-carbohydrazide], no more than 0.1 µM.
Consider `Cc1cc(NC(=O)c2cc(C#N)n3c(CC4CCC(F)(F)CC4)c(C(F)(F)F)nc3c2)on1` [Compound 138, 5-Cyano-3-[(4,4-difluorocyclohexyl)methyl]-N-(3-methylisoxazol-5-yl)-2-(trifluoromethyl)imidazo[1,2-a]pyridine-7-carboxamide], for which the IC50 under setting [1] was no more than 0.1 µM.
Consider `Cc1cc(C(=O)NC2(C3CCOCC3)CC2)cc2nc(C(F)(F)F)c(CC3CCC(F)(F)CC3)n12` [Compound 75, 3-[(4,4-Difluorocyclohexyl)methyl]-5-methyl-N-[1-(tetrahydro-2H-pyran-4-yl)cyclopropyl]-2-(trifluoromethyl)imidazo[1,2-a]pyridine-7-carboxamide], for which the IC50 under setting [1] was no more than 0.1 µM.
Regarding `CC(NC(=O)c1cc(Cl)n2c(CC3CCC(F)(F)CC3)c(C(F)(F)F)nc2c1)C(=O)NC1CCOCC1` (stereo not shown) [Compound 128, 5-Chloro-3-[(4,4-difluorocyclohexyl)methyl]-N-[1-oxo-1-(tetrahydro-2H-pyran-4-ylamino)propan-2-yl]-2-(trifluoromethyl)imidazo[1,2-a]pyridine-7-carboxamide], the IC50 is no more than 0.1 µM.
With `O=C(NCc1cccc(O)c1)c1cc(Cl)n2c(CC3CCC(F)(F)CC3)c(C(F)(F)F)nc2c1` [Compound 103, 5-Chloro-3-[(4,4-difluorocyclohexyl)methyl]-N-(3-hydroxybenzyl)-2-(trifluoromethyl)imidazo[1,2-a]pyridine-7-carboxamide], the IC50 under setting [1] is no more than 0.1 µM.
For `O=Cc1cc(C(=O)NC2CCOCC2)cc2nc(C(F)(F)F)c(CC3CCC(F)(F)CC3)n12` [Compound 45, 3-[(4,4-Difluorocyclohexyl)methyl]-5-formyl-N-(tetrahydro-2H-pyran-4-yl)-2-(trifluoromethyl)imidazo[1,2-a]pyridine-7-carboxamide], the IC50 is no more than 0.1 µM.
In the case of `CC(F)(F)c1nc2cc(C(=O)N[C@H]3C[C@@H]4CC[C@H]3O4)cc(C#N)n2c1Cc1ccc(Cl)cc1` [Compound 222, N-[(1R,2S,4S)-7-Oxabicyclo[2.2.1]heptan-2-yl]-3-(4-chlorobenzyl)-5-cyano-2-(1,1-difluoroethyl)imidazo[1,2-a]pyridine-7-carboxamide], the IC50 is no more than 0.1 µM.
Regarding `CC(C)(C)C(=O)CNC(=O)c1cc(C#N)n2c(CC3CCC(F)(F)CC3)c(C(F)(F)F)nc2c1` [Compound 160, 5-Cyano-3-[(4,4-difluorocyclohexyl)methyl]-N-(3,3-dimethyl-2-oxobutyl)-2-(trifluoromethyl)imidazo[1,2-a]pyridine-7-carboxamide], the IC50 was no more than 0.1 µM.
Take `Cc1cc(CC(=O)Nc2ccccc2N)cc2nc(C(F)(F)F)c(CC3CCC(F)(F)CC3)n12` [Compound 85, N-(2-Aminophenyl)-2-{3-[(4,4-difluorocyclohexyl)methyl]-5-methyl-2-(trifluoromethyl)imidazo[1,2-a]pyridin-7-yl}acetamide]: the IC50 under setting [1] is no more than 0.1 µM.
In the case of `CC(F)(F)c1nc2cc(C(=O)NC3CCC4(CC3)COC4)c(Cl)cn2c1CC1CCC(F)(F)CC1` [Compound 127, 6-Chloro-3-[(4,4-difluorocyclohexyl)methyl]-2-(1,1-difluoroethyl)-N-(2-oxaspiro[3.5]nonan-7-yl)imidazo[1,2-a]pyridine-7-carboxamide], the IC50 was no more than 0.1 µM.
On the same count and under the same terms, the figure for `Cc1cc(C(=O)NOC2CCOCC2)cc2nc(C(F)(F)F)c(CC3CCC(F)(F)CC3)n12` [Compound 72, 3-[(4,4-Difluorocyclohexyl)methyl]-5-methyl-N-(tetrahydro-2H-pyran-4-yloxy)-2-(trifluoromethyl)imidazo[1,2-a]pyridine-7-carboxamide] is no more than 0.1 µM; for `CC(C)(C)c1nc2cc(C(=O)NC3CC4(COC4)C3)c(Cl)cn2c1CC1CCC(F)(F)CC1` [Compound 148, 2-tert-Butyl-6-chloro-3-[(4,4-difluorocyclohexyl)methyl]-N-(2-oxaspiro[3.3]heptane-6-yl)imidazo[1,2-a]pyridine-7-carboxamide] it is no more than 0.1 µM; for `O=C(NC1CCOCC1)c1cc(Br)n2c(CC3CCC(F)(F)CC3)c(C(F)(F)F)nc2c1` [Compound 39] it is no more than 0.1 µM.
Same read-out and setting: the figure for `O=C(NCc1ccccc1)c1cc(Cl)n2c(CC3CCC(F)(F)CC3)c(C(F)(F)F)nc2c1` [Compound 98, N-Benzyl-5-chloro-3-[(4,4-difluorocyclohexyl)methyl]-2-(trifluoromethyl)imidazo[1,2-a]pyridine-7-carboxamide] is no more than 0.1 µM.
Take `Cc1cc(NC(=O)c2cc3nc(C(C)(C)Cl)c(S(=O)(=O)N4CC(F)(F)C4)n3cc2Cl)on1` [Compound 28, 6-Chloro-2-(2-chloropropan-2-yl)-3-(3,3-difluoroazetidin-1-ylsulfonyl)-N-(3-methylisoxazol-5-yl)imidazo[1,2-a]pyridine-7-carboxamide]: the IC50 under setting [1] is no more than 0.1 µM.
Regarding `CC(C)c1nc2cc(C(=O)NCC(C)(F)F)cc(C#N)n2c1CC1CCC(F)(F)CC1` [Compound 177, 5-Cyano-3-[(4,4-difluorocyclohexyl)methyl]-N-(2,2-difluoropropyl)-2-isopropylimidazo[1,2-a]pyridine-7-carboxamide], the IC50 is no more than 0.1 µM.
Consider `Cc1cc(C(=O)NC2CC(CO)(CO)C2)cc2nc(C(F)(F)F)c(CC3CCC(F)(F)CC3)n12` [Compound 80, N-[3,3-Bis(hydroxymethyl)cyclobutyl]-3-[(4,4-difluorocyclohexyl)methyl]-5-methyl-2-(trifluoromethyl)imidazo[1,2-a]pyridine-7-carboxamide], for which the IC50 is no more than 0.1 µM.
In the case of `CCOC(=O)C1(NC(=O)c2cc(Cl)n3c(CC4CCC(F)(F)CC4)c(C(F)(F)F)nc3c2)CC1` [Compound 135, Ethyl 1-{5-chloro-3-[(4,4-difluorocyclohexyl)methyl]-2-(trifluoromethyl)imidazo[1,2-a]pyridine-7-carboxamide}cyclopropanecarboxylate], the IC50 is no more than 0.1 µM.
For the molecule `CC(C)(NC(=O)c1cc(C#N)n2c(CC3CCC(F)(F)CC3)c(C(F)(F)F)nc2c1)C1CCOCC1` [Compound 63, 5-Cyano-3-[(4,4-difluorocyclohexyl)methyl]-N-[2-(tetrahydro-2H-pyran-4-yl)propan-2-yl]-2-(trifluoromethyl)imidazo[1,2-a]pyridine-7-carboxamide], the IC50 is no more than 0.1 µM.
Consider `Cc1c(C(=O)NC2CCOCC2)cc2nc(C(F)(F)F)c(CC3CCC(F)(F)CC3)n2c1C` [Compound 167, 3-[(4,4-Difluorocyclohexyl)methyl]-5,6-dimethyl-N-(tetrahydro-2H-pyran-4-yl)-2-(trifluoromethyl)imidazo[1,2-a]pyridine-7-carboxamide], for which the IC50 was no more than 0.1 µM.
